From ChEMBL document CHEMBL1137647, “vanD and vanG-like gene clusters in a Ruminococcus species isolated from human bowel flora” (2007)

System: Ruminococcus sp.
Experiment: Antimicrobial activity against Ruminococcus sp. CCRI-16110 containing vanD-like gene by agar dilution method
Format: functional

Row | Structure (SMILES) | MIC
1 | CN[C@H](CC(C)C)C(=O)N[C@H]1C(=O)N[C@@H](CC(N)=O)C(=O)N[C@H]2C(=O)N[C@H]3C(=O)N[C@H](C(=O)N[C@H](C(=O)O)c4cc(O)cc(O)c4-c4cc3ccc4O)[C@H](O)c3ccc(c(Cl)c3)Oc3cc2cc(c3O[C@@H]2O[C@H](CO)[C@@H](O)[C@H](O)[C@H]2O[C@H]2C[C@](C)(N)[C@H](O)[C@H](C)O2)Oc2ccc(cc2Cl)[C@H]1O [VANCOMYCIN] | > 256 µg/mL
2 | Cc1ncc([N+](=O)[O-])n1CCO [METRONIDAZOLE] | < 0.125 µg/mL
